Experimental data published in patent EP1935887A1, “Heterocyclic substituted carbonyl derivatives and their use as dopamine D3 receptor ligands” (Aventis Pharmaceuticals Inc., priority 2001, dated 2002).

target: T1, Cloned Human Dopamine D3 Receptors (Homo sapiens, UniProt P35462); experiment: [N-Methyl-3H]Spiroperidol binding to cloned human dopamine D3 receptors; conditions: Table 2; unit inferred; read-out: d3Ki
T1 construct: expressed in transfected cells; membrane homogenate
Excerpt: [N-Methyl-^3H]Spiroperidol Binding to Cloned Human Dopamine D3 Receptors
This assay measures the in vitro activity of compounds on cloned human dopamine (D3) receptors and predicts the direct dopamine-blocking properties of putative neuropsychiatric agents at human dopamine D3 receptors.
The D3 gene was isolated from a human striatal cDNA library (Stratagene). The gene was sequenced and sub-cloned into the expression vector RC/RSV (Invitrogen). CHO (Chinese Hamster Ovary) cells were stably transfected with 10 µg of the D3/RSV plasmid using the DOTAP method from Boehringer Mannheim and 72 clones that were G418 resistant were isolated. Using mRNA and binding displacement data a single high expressing clone was identified. This clone was then grown in large batches for the purpose of developing a 96 well format assay.
• 1. One plate (10 cm) with approximately 2-3 million D3 cells per plate is incubated with 1 ml of Trypsin-EDTA at room temperature for -2 min or until cells have lifted off plates. Four ml of Ham's F12 + 10% Fetal Bovine Serum + 1% Penicillin/Streptomycin + G418 (400 µg/ml) medium are added to resuspend cells and 1 ml of this is added to each large plate (15 cm) containing 19 ml of the same medium as mentioned above. • 2. The 5 large plates are incubated at 37°C + 5% CO2 for - 3 days or until the cells are confluent. • 3. After these plates are confluent, they are split into 10 large plates. Medium is aspirated off, 2 ml of Trypsin-EDTA are added to each plate and plates are incubated at RT for 2 min or until cells have lifted off the plate. Eight ml of the F12 medium (same medium as #1 above) are added to each plate (10 ml total) to resuspend the cells and 5 ml are transferred to the 2 new plates containing 15 ml of the F12 media. • 4. The 10 large plates are incubated at 37°C + 5% CO2 for ∼ 2 days or until the cells are confluent. • 5. The 10 large plates are split into 60 large plates (using Trypsin-EDTA as #3 except 4 ml of F12 medium are added to resuspend cells and 1 ml is aliquoted to 6 new plates containing 19 ml of F12 medium each). • 6. Plates are incubated at 37°C + 5% CO2 for - 3 days or until cell are confluent. • 7. The 60 large plates are then split into 60 roller bottles (100-150 million cells/bottle). Medium is aspirated off , 2 ml of Trypsin-EDTA are added to each plate and incubated at RT for -2 minutes or until cells have lifted off plates. Eight ml of F12 medium are added to each plate to resuspend cells and the entire 10 ml are added to 1 roller bottle containing 90 ml of the F12 medium. • 8. The 60 roller bottles are immediately placed on their sides and transferred to the roller bottle incubator. They are incubated at 37°C + 5% CO2 for ~ 3-5 days. Cells are spun at 30-40% motor speed in the Forma incubator. • 9. Medium is poured off and cells are washed 2X in PBS. • 10. Cells are then scraped off in 20 ml of PBS and the bottles are rinsed again with 5 ml of PBS to remove any remaining cells. Cells are stored on ice before membrane prepration. • 11. The yield for 60 D3 roller bottles has varied from - 260-500 mg. Note: All tissue culture reagents are from Gibco-BRL.
The cells are harvested into 250 ml centrifuge tubes with 100 volumes of cold phosphate buffered saline (PBS) and spun down (1200xG for 10 min at 4°C). The medium is removed and 100 ml PBS are added to each centrifuge tube, cells are resuspened and spun down again. The PBS is removed and the final pellet is homogenized in an appropriate volume of 10% DMSO with a polytron on ice at a medium setting.
A 200 µl sample membrane homogenate is added to 200 µl of 1% SDS, vortexed and allowed to stand for 5 min. Aliquots (25, 50 and 100 µl) of this mixture are assayed in duplicate following the standard Bio-Rad DC protein assay protocol (kit catalog number 500-0112) and using reagent S. Absorbance readings are made at 750 nm (note: the most accurate protein OD readings are between 0.1-0.5 units). […]

T1 sequence (P35462 whole entry): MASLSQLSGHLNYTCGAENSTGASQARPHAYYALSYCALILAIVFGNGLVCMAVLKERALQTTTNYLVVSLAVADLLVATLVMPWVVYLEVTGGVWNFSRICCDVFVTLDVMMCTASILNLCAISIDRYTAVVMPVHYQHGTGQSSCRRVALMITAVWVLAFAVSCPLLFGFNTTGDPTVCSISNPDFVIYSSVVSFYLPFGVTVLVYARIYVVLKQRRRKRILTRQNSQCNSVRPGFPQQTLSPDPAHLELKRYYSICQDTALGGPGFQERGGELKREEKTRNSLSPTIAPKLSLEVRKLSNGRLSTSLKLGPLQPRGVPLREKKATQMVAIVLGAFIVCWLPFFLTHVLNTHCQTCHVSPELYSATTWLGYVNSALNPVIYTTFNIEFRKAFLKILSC

SMILES	Ki
C[C@H]1CC[C@H](NC(=O)[C@@H]2C[C@H]2CN2CCN(c3ccccc3C#N)CC2)CC1 [compound 817040]	0.804 nM
CCC1CCC(NC(=O)C2CC2CN2CCN(c3cccc(Cl)c3Cl)CC2)CC1 (stereo not shown) [compound 817041]	0.776 nM
CCC1CCC(NC(=O)C2CC2CN2CCN(c3cc(Cl)ccc3OC)CC2)CC1 (stereo not shown) [compound 817042]	0.615 nM
CCC1CCC(NC(=O)C2CC2CN2CCN(c3ccc(C(F)(F)F)cc3)CC2)CC1 (stereo not shown) [compound 817043]	7.2 nM
CC[C@H]1CC[C@H](NC(=O)[C@@H]2C[C@H]2CN2CCN(c3ccccc3C#N)CC2)CC1 [compound 817044]	1.1 nM
Cc1ccc(N2CCN(C[C@@H]3C[C@H]3C(=O)N[C@H]3CC[C@H](C)CC3)CC2)cc1C [compound 817045]	5.36 nM
CCC1CCC(NC(=O)C2CC2CN2CCN(c3ccc(C)c(C)c3)CC2)CC1 (stereo not shown) [compound 817046]	1.92 nM
O=C(N[C@H]1CC[C@H](C(=O)N2CCCC2)CC1)[C@@H]1C[C@H]1CN1CCN(c2csc3cc(C(F)(F)F)ccc23)CC1 [compound 817047]	2.86 nM
CCN(CC)C(=O)[C@H]1CC[C@H](NC(=O)[C@@H]2C[C@H]2CN2CCN(c3csc4cc(C(F)(F)F)ccc34)CC2)CC1 [compound 817048]	2.85 nM
COCCNC(=O)C1CCC(NC(=O)C2CC2CN2CCN(c3csc4cc(C(F)(F)F)ccc34)CC2)CC1 (stereo not shown) [compound 817049]	7.02 nM
C[C@]1(O)CC[C@H](NC(=O)[C@@H]2C[C@H]2CN2CCN(c3csc4cc(C(F)(F)F)ccc34)CC2)CC1 [compound 817050]	2.15 nM
C[C@]1(O)CC[C@@H](NC(=O)[C@@H]2C[C@H]2CN2CCN(c3csc4cc(C(F)(F)F)ccc34)CC2)CC1 [compound 817051]	3.47 nM
CC[C@H]1CC[C@H](NC(=O)[C@@H]2C[C@H]2CN2CCN(c3ccc(Cl)c(Cl)c3)CC2)CC1 [compound 817090]	2.17 nM
CC[C@H]1CC[C@H](NC(=O)[C@@H]2C[C@H]2CN2CCN(c3ccc(C)cc3C)CC2)CC1 [compound 817091]	3.98 nM
CC[C@H]1CC[C@H](NC(=O)[C@@H]2C[C@H]2CN2CCN(c3ncc(C(F)(F)F)cc3Cl)CC2)CC1 [compound 817093]	5.97 nM
COc1ccc(N2CCN(C[C@@H]3C[C@H]3C(=O)N[C@H]3CC[C@H](C)CC3)CC2)c(OC)c1 [compound 817094]	8.89 nM
C[C@H]1CC[C@H](NC(=O)[C@@H]2C[C@H]2CN2CCN(c3cc(Cl)cc(Cl)c3)CC2)CC1 [compound 817095]	0.671 nM
CC[C@H]1CC[C@H](NC(=O)[C@@H]2C[C@H]2CN2CCN(c3ccc(OC)cc3OC)CC2)CC1 [compound 817096]	9.09 nM
CCC1CCC(NC(=O)C2CC2CN2CCN(c3cc(Cl)cc(Cl)c3)CC2)CC1 (stereo not shown) [compound 817097]	0.636 nM
C[C@H]1CC[C@H](NC(=O)[C@@H]2C[C@H]2CN2CCN(c3cccc4[nH]ccc34)CC2)CC1 [compound 817098]	1.06 nM
C[C@H]1CC[C@H](NC(=O)[C@@H]2C[C@H]2CN2CCN(c3cccc4ccccc34)CC2)CC1 [compound 817099]	1.1 nM
CCC1CCC(NC(=O)C2CC2CN2CCN(c3cccc4[nH]ccc34)CC2)CC1 (stereo not shown) [compound 817100]	0.75 nM
CC[C@H]1CC[C@H](NC(=O)[C@@H]2C[C@H]2CN2CCN(c3cccc4ccccc34)CC2)CC1 [compound 817101]	0.547 nM

SMILES	Ki
CC[C@H]1CC[C@H](NC(=O)[C@@H]2C[C@H]2CN2CCN(c3cc(C)ccc3C)CC2)CC1 [compound 817102]	7.75 nM
CCC1CCC(NC(=O)C2CC2CN2CCCN(c3cc(C(F)(F)F)nc(C(C)(C)C)n3)CC2)CC1 (stereo not shown) [compound 817260]	12.5 nM
CC1CCC(NC(=O)C2CC2CN2CCCN(c3cc(C(F)(F)F)nc(C(C)(C)C)n3)CC2)CC1 (stereo not shown) [compound 817261]	9.23 nM
CCCc1cc(N2CCCN(C[C@@H]3C[C@H]3C(=O)N[C@H]3CC[C@H](CC)CC3)CC2)nc(C(C)(C)C)n1 [compound 817272]	1.72 nM
CCCc1cc(N2CCCN(C[C@@H]3C[C@H]3C(=O)N[C@H]3CC[C@H](C)CC3)CC2)nc(C(C)(C)C)n1 [compound 817273]	3.05 nM
C[C@H]1CC[C@H](NC(=O)[C@@H]2C[C@H]2CN2CCN(c3ncccc3Cl)CC2)CC1 [compound 817565]	1.73 nM
CC[C@H]1CC[C@H](NC(=O)[C@@H]2C[C@H]2CN2CCN(c3ncccc3Cl)CC2)CC1 [compound 817566]	2.46 nM
CC1CCC(NC(=O)C2CC2CN2CCCN(c3cnccn3)CC2)CC1 (stereo not shown) [compound 817567]	80.6 nM
CC[C@H]1CC[C@H](NC(=O)[C@@H]2C[C@H]2CN2CCCN(c3cnccn3)CC2)CC1 [compound 817568]	36.3 nM
CCC1(O)CCC(NC(=O)[C@@H]2C[C@H]2CN2CCN(c3csc4cc(C(F)(F)F)ccc34)CC2)CC1 (stereo partly shown) [compound 818497]	5.52 nM
CC1CCC(NC(=O)C2CC2CN2CCCN(c3ccccn3)CC2)CC1 (stereo not shown) [compound 818498]	25.6 nM
CC[C@H]1CC[C@H](NC(=O)[C@@H]2C[C@H]2CN2CCN(c3csc4cc(C(F)(F)F)ccc34)CC2)CC1 [compound 818499]	22.1 nM
CCC1CCC(NC(=O)C2CC2CN2CCN(c3noc4ccsc34)CC2)CC1 (stereo not shown) [compound 818574]	9.6 nM
CN(C(=O)CCCCN1CCN(c2csc3cc(F)ccc23)CC1)c1ccccc1 [compound 822129]	38 nM
CCN(C(=O)CCCCN1CCN(c2csc3cc(F)ccc23)CC1)c1ccc2c(c1)OCO2 [compound 822130]	51 nM
COc1ccc(N(C)C(=O)CCCCN2CCN(c3csc4cc(F)ccc34)CC2)cc1 [compound 822131]	61 nM
CCN(C(=O)CCCCN1CCN(c2csc3cc(F)ccc23)CC1)c1c(C)cccc1O [compound 822132]	18 nM
CN(C(=O)CCCCN1CCN(c2csc3cc(F)ccc23)CC1)c1ccc(Cl)cc1 [compound 822133]	17 nM
O=C(CCCCN1CCN(c2csc3cc(F)ccc23)CC1)Nc1cccc2ccccc12 [compound 822134]	82 nM
O=C(CCCCN1CCN(c2csc3cc(F)ccc23)CC1)Nc1ccccc1F [compound 822135]	3.6 nM
CC(C)(C)c1ccc(NC(=O)CCCCN2CCN(c3csc4cc(F)ccc34)CC2)cc1 [compound 822136]	207 nM
O=C(CCCCN1CCN(c2csc3cc(F)ccc23)CC1)Nc1cccc(Oc2ccccc2)c1 [compound 822137]	36 nM

same assay, conditions: d3Ki, Table 2; unit inferred

SMILES	Ki
C[C@H]1CC[C@H](NC(=O)[C@H]2C[C@@H]2CN2CCN(c3noc4ccsc34)CC2)CC1 [compound 817893]	245 nM
CC1CCC(NC(=O)C2CC2CN2CCN(c3noc4ccsc34)CC2)CC1 (stereo not shown) [compound 818427]	6.07 nM

same assay, conditions: read-out: d3Ki

SMILES	Ki
Cc1ccccc1N1CCN(CC2CC2C(=O)NC2CCC(C)CC2)CC1 (stereo not shown) [compound 817478]	1.46 nM
CC[C@H]1CC[C@H](NC(=O)[C@@H]2C[C@H]2CN2CCN(c3ncc(C(F)(F)F)cc3Cl)CC2)CC1 [compound 817480]	3.07 nM
CC[C@H]1CC[C@H](NC(=O)[C@@H]2C[C@H]2CN2CCN(c3cc(C)ccc3C)CC2)CC1 [compound 817570]	6.24 nM
CC[C@H]1CC[C@H](NC(=O)[C@@H]2C[C@H]2CN2CCN(c3ccc(C)cc3C)CC2)CC1 [compound 817571]	2.85 nM
CCC1CCC(NC(=O)C2CC2CN2CCN(c3ccccc3C)CC2)CC1 (stereo not shown) [compound 818675]	0.711 nM
